Test results reported in patent US10273231B2, “Azoline compounds substituted by a condensed ring system” (BASF SE, priority 2014, dated 2019).

How the values were obtained:
Type in all cases: in vivo
[1] = tested on: Vetch Aphid (Megoura viciae); assay: B.3 Vetch aphid test on broad bean leaf disks; conditions: foliar, 120 h, adult aphids, assessed after 5 days, read-out: mortality in comparison with untreated controls
Procedure: B.3 Vetch Aphid (Megoura viciae)
For evaluating control of vetch aphid (Megoura viciae) through contact or systemic means the test unit consisted of 24-well-microtiter plates containing broad bean leaf disks.
The compounds were formulated using a solution containing 75% v/v water and 25% v/v DMSO. Different concentrations of formulated compounds were sprayed onto the leaf disks at 2.5 μl, using a custom built micro atomizer, at two replications.
After application, the leaf disks were air-dried and 5-8 adult aphids placed on the leaf disks inside the microtiter plate wells. The aphids were then allowed to suck on the treated leaf disks and incubated at about 23±10C and about 50±5% relative humidity for 5 days. Aphid mortality and fecundity was then visually assessed.

[2] = tested on: Mediterranean Fruitfly (Ceratitis capitata); assay: B.6 Mediterranean fruitfly test, insect diet with eggs in microtiter plates; conditions: 120 h, egg and larval mortality after 5 days, read-out: mortality in comparison with untreated controls
Procedure: B.6 Mediterranean Fruitfly (Ceratitis capitata)
For evaluating control of Mediterranean fruitfly (Ceratitis capitata) the test unit consisted of microtiter plates containing an insect diet and 50-80 C. capitata eggs. The compounds were formulated using a solution containing 75% v/v water and 25% v/v DMSO. Different concentrations of formulated compounds were sprayed onto the insect diet at 5 μl, using a custom built micro atomizer, at two replications.
After application, microtiter plates were incubated at about 28±1° C. and about 80+5% relative humidity for 5 days. Egg and larval mortality was then visually assessed.

[3] = tested on: Rice Green Leafhopper (Nephotettix virescens); assay: B.8 Rice green leafhopper test on sprayed rice seedlings; conditions: adults, recorded after 72 hours, read-out: mortality in comparison with untreated controls
Procedure: B.8 Rice Green Leafhopper (Nephotettix virescens)
Rice seedlings were cleaned and washed 24 hours before spraying. The active compounds were formulated in 1:1 acetone:water (vol:vol), and 0.01% vol/vol surfactant (Kinetic HV) was added. Potted rice seedlings were sprayed with 5-6 ml test solution, air dried, covered with Mylar cages cages and inoculated with 10 adults. Treated rice plants were kept at about 28-29° C. and relative humidity of about 50-60%. Percent mortality was recorded after 72 hours.

[4] = tested on: Tobacco Budworm (Heliothis virescens); assay: B.4 Tobacco budworm test, insect diet with eggs in microtiter plates; conditions: 120 h, egg and larval mortality after 5 days, read-out: mortality in comparison with untreated controls
Procedure: B.4 Tobacco Budworm (Heliothis virescens)
For evaluating control of tobacco budworm (Heliothis virescens) the test unit consisted of 96-well-microtiter plates containing an insect diet and 15-25 H. virescens eggs.
The compounds were formulated using a solution containing 75% v/v water and 25% v/v DMSO. Different concentrations of formulated compounds were sprayed onto the insect diet at 10 μl, using a custom built micro atomizer, at two replications.
After application, microtiter plates were incubated at about 28±10C and about 80±5% relative humidity for 5 days. Egg and larval mortality was then visually assessed.

[5] = tested on: Orchid Thrips (Dichromothrips Corbetti); assay: B.7 Orchid thrips floral-immersion test; conditions: adult thrips, recorded 72 hours after treatment, read-out: mortality in comparison with untreated controls
Procedure: B.7 Orchid Thrips (Dichromothrips Corbetti) Dichromothrips corbettiadults used for bioassay were obtained from a colony maintained continuously under laboratory conditions. For testing purposes, the test compound is diluted in a 1:1 mixture of acetone:water (vol:vol), plus Kinetic HV at a rate of 0.01% v/v.
Thrips potency of each compound was evaluated by using a floral-immersion technique. All petals of individual, intact orchid flowers were dipped into treatment solution and allowed to dry in Petri dishes. Treated petals were placed into individual re-sealable plastic along with about 20 adult thrips. All test arenas were held under continuous light and a temperature of about 28° C. for duration of the assay. After 3 days, the numbers of live thrips were counted on each petal. The percent mortality was recorded 72 hours after treatment.

[6] = tested on: Brown Marmorated Stink Bug (Halyomorpha halys); assay: B.13 Brown marmorated stink bug test on peanuts and soybean seeds in plastic cups; conditions: 120 h, adult stage, recorded after 5 days, read-out: mortality in comparison with untreated controls
Procedure: B.13 Brown Marmorated Stink Bug (Halyomorpha halys)
(§1) The active compound was dissolved at the desired concentration in a mixture of 1:1 (vol:vol) distilled water:acetone. Surfactant (Kinetic HV) was added at a rate of 0.01% (vol/vol).The test solution was prepared at the day of use.
Row peanuts and soybean seeds were placed into microwavable plastic cups and inoculated with five adult stage H. halys. Using a hand atomizer, approximately 1 ml solution is sprayed into each cup, insects and food present. A water source was provided (cotton wick with water). Each treatment is replicated 4-fold. Assay arenas are kept at about 25° C. Percent mortality was recorded after 5 days.

[7] = tested on: Red Spider Mite (Tetranychus kanzawai); assay: B.9 Red spider mite test on sprayed cowpea beans; conditions: assessed 72 hours after treatment, read-out: mortality in comparison with untreated controls
Procedure: B.9 Red Spider Mite (Tetranychus kanzawai)
The active compound was dissolved at the desired concentration in a mixture of 1:1 (vol:vol) distilled water:acetone. Add surfactant (Kinetic HV) was added at a rate of 0.01% (vol/vol).The test solution was prepared at the day of use.
Potted cowpea beans of 4-5 days of age were cleaned with tap water and sprayed with 1-2 ml of the test solution using air driven hand atomizer. The treated plants were allowed to air dry and afterwards inoculated with 30 or more mites by clipping a cassava leaf section from rearing population. Treated plants were placed inside a holding room at about 25-27° C. and about 50-60% relative humidity. Percent mortality was assessed 72 hours after treatment.

[8] = tested on: Neotropical Brown Stink Bug (Euschistus heros); assay: B.12 Neotropical brown stink bug test on soybean pods in plastic cups; conditions: 120 h, adult stage, recorded after 5 days, read-out: mortality in comparison with untreated controls
Procedure: B.12 Neotropical Brown Stink Bug (Euschistus heros)
as §1
Soybean pods were placed in microwavable plastic cups and inoculated with ten adult stage E. heros. Using a hand atomizer, approximately 1 ml solution is sprayed into each cup, insects and food present. A water source was provided (cotton wick with water). Each treatment was replicated 2-fold. Assay arenas were kept at about 25° C. Percent mortality was recorded after 5 days.

[9] = tested on: Southern Armyworm (Spodoptera eridania); assay: B.10 Southern armyworm test on sprayed lima bean plants; conditions: 96 h, larvae, assessed 4 days after treatment, read-out: mortality in comparison with untreated controls
Procedure: B.10 Southern Armyworm (Spodoptera eridania)
The active compounds were formulated in cyclohexanone as a 10,000 ppm solution supplied in tubes. The tubes were inserted into an automated electrostatic sprayer equipped with an atomizing nozzle and they served as stock solutions for which lower dilutions were made in 50% acetone:50% water (v/v). A nonionic surfactant (Kinetic®) was included in the solution at a volume of 0.01% (v/v).
Lima bean plants (variety Sieva) were grown 2 plants to a pot and selected for treatment at the 1st true leaf stage. Test solutions were sprayed onto the foliage by an automated electrostatic plant sprayer equipped with an atomizing spray nozzle. The plants were dried in the sprayer fume hood and then removed from the sprayer. Each pot was placed into perforated plastic bags with a zip closure. About 10 to 11 armyworm larvae were placed into the bag and the bags zipped closed. Test plants were maintained in a growth room at about 250C and about 20-40% relative humidity for 4 days, avoiding direct exposure to fluorescent light (24 hour photoperiod) to prevent trapping of heat inside the bags. Mortality and reduced feeding were assessed 4 days after treatment, compared to untreated control plants.

[10] = tested on: Green Soldier Stink Bug (Nezara viridula); assay: B.11 Green soldier stink bug test on soybean pods in Petri dishes; conditions: 120 h, late 3rd instar, recorded after 5 days, read-out: mortality in comparison with untreated controls
Procedure: B.11 Green Soldier Stink Bug (Nezara viridula)
as §1
Soybean pods were placed in glass Petri dishes lined with moist filter paper and inoculated with ten late 3rd instar N. viridula. Using a hand atomizer, approximately 2 ml solution is sprayed into each Petri dish. Assay arenas were kept at about 25° C. Percent mortality was recorded after 5 days.

[11] = tested on: Boll Weevil (Anthonomus grandis); assay: B.5 Boll weevil test, insect diet with eggs in microtiter plates; conditions: 120 h, egg and larval mortality after 5 days, read-out: mortality in comparison with untreated controls
Procedure: B.5 Boll Weevil (Anthonomus grandis)
For evaluating control of boll weevil (Anthonomus grandis) the test unit consisted of 96-well-microtiter plates containing an insect diet and 5-10 A. grandis eggs.
The compounds were formulated using a solution containing 75% v/v water and 25% v/v DMSO. Different concentrations of formulated compounds were sprayed onto the insect diet at 5 μl, using a custom built micro atomizer, at two replications.
After application, microtiter plates were incubated at about 25±1° C. and about 75±5% relative humidity for 5 days. Egg and larval mortality was then visually assessed.

[12] = tested on: Green Peach Aphid (Myzus persicae); assay: B.2 Green peach aphid systemic test, artificial diet under membrane in microtiter plates; conditions: 72 h, adult aphids, assessed after 3 days, read-out: mortality in comparison with untreated controls
Source text: B.2 Green Peach Aphid (Myzus persicae)
For evaluating control of green peach aphid (Myzus persicae) through systemic means the test unit consisted of 96-well-microtiter plates containing liquid artificial diet under an artificial membrane.
The compounds were formulated using a solution containing 75% v/v water and 25% v/v DMSO. Different concentrations of formulated compounds were pipetted into the aphid diet, using a custom built pipetter, at two replications.
After application, 5-8 adult aphids were placed on the artificial membrane inside the microtiter plate wells. The aphids were then allowed to suck on the treated aphid diet and incubated at about 23±1° C. and about 50±5% relative humidity for 3 days. Aphid mortality and fecundity was then visually assessed.

[13] = tested on: Diamond Back Moth (Plutella xylostella); assay: B.1 Diamond back moth leaf-dip test on cabbage leaves; conditions: 3rd instar larvae, recorded 72 hours after treatment, read-out: mortality in comparison with untreated controls
Procedure: B.1 Diamond Back Moth (Plutella xylostella)
The active compound was dissolved at the desired concentration in a mixture of 1:1 (vol:vol) distilled water:aceteone. Surfactant (Kinetic HV) was added at a rate of 0.01% (vol/vol).The test solution was prepared at the day of use.
Leaves of cabbage were dipped in test solution and air-dried. Treated leaves were placed in petri dishes lined with moist filter paper and inoculated with ten 3rd instar larvae. Mortality was recorded 72 hours after treatment. Feeding damages were also recorded using a scale of 0-100%.

O=C(NC1CS(=O)(=O)C1)c1ccc(C2=NOC(c3cc(Cl)c(F)c(Cl)c3)(C(F)(F)F)C2)c2c1SCC2 (centres unmarked) [Compound I-7, 4-[5-(3,5-dichloro-4-fluoro-phenyl)-5-(trifluoromethyl)-4H-isoxazol-3-yl]-N-(1,1-dioxothietan-3-yl)-2,3-dihydrobenzothiophene-7-carboxamide]
≥ 75%: mortality at 2500 ppm [1] | mortality at 2500 ppm [2] | mortality at 300 ppm [3] | mortality at 2500 ppm [4] | mortality at 300 ppm [5] | mortality at 100 ppm [6] | mortality at 300 ppm [7] | mortality at 100 ppm [8] | mortality at 10 ppm [9] | mortality at 300 ppm [10] | mortality at 2500 ppm [11] | mortality at 2500 ppm [12] | mortality at 300 ppm [13]

CCCC(=O)NCc1ccc(C2=NOC(c3cc(Cl)c(F)c(Cl)c3)(C(F)(F)F)C2)c2c1OCC2 (centres unmarked) [Compound I-16, N-[[4-[5-(3,5-dichloro-4-fluoro-phenyl)-5-(trifluoromethyl)-4H-isoxazol-3-yl]-2,3-dihydrobenzofuran-7-yl]methyl]butanamide]
≥ 75%: mortality at 2500 ppm [1] | mortality at 2500 ppm [2] | mortality at 300 ppm [3] | mortality at 2500 ppm [4] | mortality at 300 ppm [5] | mortality at 300 ppm [7] | mortality at 300 ppm [10] | mortality at 2500 ppm [11] | mortality at 2500 ppm [12] | mortality at 300 ppm [13]
